Measurements reported in the supplement of paper PMC10307832.

Legend:
Experiment in all cases: relative viability (nuclei count vs DMSO), 5 days (fraction); higher = more cells survive
[1] = compound: CCc1c2c(nc3ccc(OC(=O)N4CCC(N5CCCCC5)CC4)cc13)-c1cc3c(c(=O)n1C2)COC(=O)[C@]3(O)CC [Irinotecan] + CC1(C)CCC(c2ccc(Cl)cc2)=C(CN2CCN(c3ccc(C(=O)NS(=O)(=O)c4ccc(N[C@H](CCN5CCOCC5)CSc5ccccc5)c(S(=O)(=O)C(F)(F)F)c4)cc3)CC2)C1 [Navitoclax] (partner 0.5 µM)
Procedure, shortened: (§1)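 Relative viability is defined as nuclei in treated wells over nuclei in vehicle wells. Duplicate plates were run and medians reported. Lung cancer cell lines in 1536-well plates were dosed by pin tool one day after seeding, with one drug or with a fixed anchor-drug dose plus five library-drug doses (not always all listed) in √10 steps, and nuclei were counted after 5 days.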

[2] = compound: CC[C@@H](C)CNCC(=O)N1CCC2=C([C@@H]1COC3=CC=CC(=C3)C)C=CS2 [RU-SKI 43] + CS(=O)(=O)CCNCc1ccc(-c2ccc3ncnc(Nc4ccc(OCc5cccc(F)c5)c(Cl)c4)c3c2)o1 [Lapatinib] (partner 2 µM)
Procedure, shortened: as §1

[3] = compound: Cn1cc(-c2cnc3ccc4ccc(CS(=O)(=O)NCc5ccccn5)cc4c(=O)c3c2)cn1 [MK-8033] + COc1cccc2cc(-c3nc([C@H]4CC[C@H](C(=O)O)CC4)n4ncnc(N)c34)[nH]c12 [OSI-027] (partner 0.5 µM)
Procedure, shortened: as §1

[4] = compound: CC[C@@H](C)CNCC(=O)N1CCC2=C([C@@H]1COC3=CC=CC(=C3)C)C=CS2 [RU-SKI 43] + CCNC(=O)c1noc(-c2cc(C(C)C)c(O)cc2O)c1-c1ccc(CN2CCOCC2)cc1 [Luminespib] (partner 0.01 µM)
Procedure, shortened: as §1

Cell Line	relative viability ([1]; first compound 0.6325 µM)	relative viability ([1]; first compound 2 µM)	relative viability ([1]; first compound 6.325 µM)	relative viability ([1]; first compound 20 µM)	relative viability ([2]; first compound 0.1 µM)	relative viability ([2]; first compound 0.3162 µM)	relative viability ([2]; first compound 1 µM)	relative viability ([2]; first compound 3.162 µM)	relative viability ([2]; first compound 10 µM)	relative viability ([3]; first compound 0.02 µM)	relative viability ([3]; first compound 0.06325 µM)	relative viability ([3]; first compound 0.2 µM)	relative viability ([3]; first compound 0.6325 µM)	relative viability ([3]; first compound 2 µM)	relative viability ([4]; first compound 0.1 µM)	relative viability ([4]; first compound 0.3162 µM)	relative viability ([4]; first compound 1 µM)	relative viability ([4]; first compound 3.162 µM)	relative viability ([4]; first compound 10 µM)
NCI-H2347	0.648	0.477	0.348	0.277	0.951	0.829	1.08	1.04	0.726	0.395	0.399	0.406	0.454	0.422	0.443	0.717	0.639	0.357	0.35
H3255	0.352	0.279	0.158	0.227	0.249	0.193	0.174	0.192	0.213	0.621	0.551	0.597	0.491	0.639	0.928	0.951	1.23	0.76	0.849
NCI-H2009	0.802	0.58	0.19	0.148	0.899	0.837	0.901	0.964	0.905	0.628	0.612	0.597	0.617	0.626	0.981	1.12	0.984	1.02	1.03
NCI-H460	0.779	0.165	0.0691	0.053	0.993	1.33	1.55	1.25	1.01	0.643	0.627	0.547	0.686	0.472	0.035	0.0298	0.0295	0.0325	0.0355
COR-L 105	0.721	0.766	0.529	0.463	0.411	0.344	0.379	0.376	0.351	0.687	0.429	0.635	0.638	0.671	0.871	0.837	0.643	0.772	0.686
BEN	0.0453	0.0844	0.0937	0.248	0.691	0.607	0.961	0.589	0.684	0.305	0.298	0.295	0.284	0.244	0.423	0.277	0.525	0.218	0.421
NCI-H1993	0.97	0.834	0.588	0.812	0.739	0.859	0.717	0.822	1.8	0.519	0.583	0.561	0.598	0.527	0.714	0.813	0.982	1.02	0.825
NCI-H838	1.14	0.754	0.4	0.266	0.905	0.945	1.12	1.17	1.01	0.374	0.368	0.361	0.407	0.412	0.237	0.241	0.288	0.237	0.232
NCI-H1755	0.886	0.283	0.221	0.287	1.03	1.4	1.08	0.995	1.01	0.625	0.676	0.681	0.717	0.822	0.5	0.3	0.515	0.472	0.301
NCI-H1666	0.695	0.643	0.401	0.326	0.58	0.721	0.695	0.615	0.52	0.886	0.754	0.771	0.94	0.803	0.941	1.03	1.03	0.942	0.833
NCI-H2085	1.03	0.862	0.493	0.507	0.672	0.719	0.836	0.674	0.686	0.762	0.728	0.653	0.643	0.7	0.398	0.481	0.591	0.431	0.407
COR-L23	0.413	0.261	0.154	0.115	0.982	0.845	1.3	1.04	0.996	0.814	0.743	0.701	0.749	0.736	0.547	0.573	0.93	0.869	0.614
NCI-H647	1.03	0.39	0.194	0.177	1.24	1.22	1.16	1.25	1.26	0.69	0.723	0.534	0.46	0.582	0.163	0.325	0.236	0.123	0.221
NCI-H1793	–	0.447	0.347	0.664	0.69	0.644	0.594	0.673	0.697	0.247	0.253	0.233	0.282	0.2	0.167	0.154	0.205	0.154	0.183
LCLC-97TM1	0.254	0.256	0.218	0.163	1.08	–	1.02	1.04	0.781	0.519	0.456	0.431	0.592	0.568	0.902	0.927	0.876	0.898	0.85
